Assay results as given in patent US20220402950A1, “SUBSTITUTED BENZIMIDAZOLES AS PAD4 INHIBITORS” (BRISTOL-MYERS SQUIBB COMPANY, priority 2018, published 2022).

Target: human PAD4 (hPAD4) (Homo sapiens, UniProt Q9UM07)
Test: RFMS Human PAD4 Functional Assay
Assay type: biochemical
Conditions: hPAD4 RFMS IC50, human PAD4, rapid-fire mass spectrum (RFMS) assay; 5 nM hPAD4, 250 μM BAEE
How it was run: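 RapidFire ESI-MS quantification, normalised to a modified-citrulline internal standard, after phenyl glyoxal (final 4 mM) derivatisation of the TCA-quenched reaction. The enzyme (10 nM) sat 30 min with compound (up to 50 μM final) before 500 μM BAEE (as added) started a 90 min, 37 °C reaction. Buffer: HEPES pH 7.5, 50 μM calcium, 5 μM TPEN.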

Chain of human PAD4 (hPAD4) (Q9UM07 whole entry): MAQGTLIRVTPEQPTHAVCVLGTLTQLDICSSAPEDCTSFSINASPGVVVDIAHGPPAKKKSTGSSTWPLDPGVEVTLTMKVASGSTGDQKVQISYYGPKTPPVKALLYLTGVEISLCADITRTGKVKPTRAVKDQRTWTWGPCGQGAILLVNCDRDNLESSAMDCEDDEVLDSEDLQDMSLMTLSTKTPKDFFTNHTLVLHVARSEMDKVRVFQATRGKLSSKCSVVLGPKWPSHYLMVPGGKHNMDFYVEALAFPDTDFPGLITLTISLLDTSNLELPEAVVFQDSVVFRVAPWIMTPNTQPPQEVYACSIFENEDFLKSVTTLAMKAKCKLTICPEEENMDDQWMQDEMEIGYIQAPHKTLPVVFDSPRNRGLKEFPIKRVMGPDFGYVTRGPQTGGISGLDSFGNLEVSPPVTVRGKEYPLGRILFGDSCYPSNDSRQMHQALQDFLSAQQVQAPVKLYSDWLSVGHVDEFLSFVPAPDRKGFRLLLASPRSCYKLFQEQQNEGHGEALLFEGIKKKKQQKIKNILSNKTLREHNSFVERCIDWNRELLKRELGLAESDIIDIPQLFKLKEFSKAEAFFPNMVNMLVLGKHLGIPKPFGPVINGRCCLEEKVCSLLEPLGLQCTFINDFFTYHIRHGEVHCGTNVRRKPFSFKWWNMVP

| SMILES | IC50 |
| --- | --- |
| COc1cc(C(=O)N2C[C@H]3CC[C@@H]2[C@@H]3N)cc2nc(-c3cc4cccc(NCCC(C)(C)O)c4n3CC3CC3)n(C)c12 [Example 169, ((1R,4R,7R)-7-amino-2-azabicyclo[2.2.1]heptan-2-yl)(2-(1-(cyclopropylmethyl)-7-((3-hydroxy-3-methylbutyl)amino)-1H-indol-2-yl)-7-methoxy-1-methyl-1H-benzo[d]imidazol-5-yl)methanone] | 198 nM |
| COc1cc(C(=O)N2C[C@H]3CC[C@@H]2[C@@H]3N)cc2nc(-c3cc4cccc(NC5CCN(C)CC5)c4n3CC3CC3)n(C)c12 [Example 170, ((1R,4R,7R)-7-amino-2-azabicyclo[2.2.1]heptan-2-yl)(2-(1-(cyclopropylmethyl)-7-((1-methylpiperidin-4-yl)amino)-1H-indol-2-yl)-7-methoxy-1-methyl-1H-benzo[d]imidazol-5-yl)methanone] | 59 nM |
| COc1cc(C(=O)N2C[C@H]3CC[C@@H]2[C@@H]3N)cc2nc(-c3cc4cccc(Nc5cnn(C)c5)c4n3CC3CC3)n(C)c12 [Example 171, ((1R,4R,7R)-7-amino-2-azabicyclo[2.2.1]heptan-2-yl)(2-(1-(cyclopropylmethyl)-7-((1-methyl-1H-pyrazol-4-yl)amino)-1H-indol-2-yl)-7-methoxy-1-methyl-1H-benzo[d]imidazol-5-yl)methanone] | 96 nM |
| COc1cc(C(=O)N2C[C@H]3CC[C@@H]2[C@@H]3N)cc2nc(-c3cc4cccc(Nc5c(C)n[nH]c5C)c4n3CC3CC3)n(C)c12 [Example 172, ((1R,4R,7R)-7-amino-2-azabicyclo[2.2.1]heptan-2-yl)(2-(1-(cyclopropylmethyl)-7-((3,5-dimethyl-1H-pyrazol-4-yl)amino)-1H-indol-2-yl)-7-methoxy-1-methyl-1H-benzo[d]imidazol-5-yl)methanone] | 43 nM |
| COc1cc(C(=O)N2C[C@H]3CC[C@@H]2[C@@H]3N)cc2nc(-c3cc4cccc(Nc5cn(C)nc5C)c4n3CC3CC3)n(C)c12 [Example 173, ((1R,4R,7R)-7-amino-2-azabicyclo[2.2.1]heptan-2-yl)(2-(1-(cyclopropylmethyl)-7-((1,3-dimethyl-1H-pyrazol-4-yl)amino)-1H-indol-2-yl)-7-methoxy-1-methyl-1H-benzo[d]imidazol-5-yl)methanone] | 42 nM |
| COc1cc(C(=O)N2C[C@H]3CC[C@@H]2[C@@H]3N)cc2nc(-c3cc4cccc(Nc5c(C)nn(C)c5C)c4n3CC3CC3)n(C)c12 [Example 174, ((1R,4R,7R)-7-amino-2-azabicyclo[2.2.1]heptan-2-yl)(2-(1-(cyclopropylmethyl)-7-((1,3,5-trimethyl-1H-pyrazol-4-yl)amino)-1H-indol-2-yl)-7-methoxy-1-methyl-1H-benzo[d]imidazol-5-yl)methanone] | 41 nM |
| COc1cc(C(=O)N2C[C@H]3CC[C@@H]2[C@@H]3N)cc2nc(-c3cc4cccc(Nc5cnn(CC(F)F)c5)c4n3CC3CC3)n(C)c12 [Example 175, ((1R,4R,7R)-7-amino-2-azabicyclo[2.2.1]heptan-2-yl)(2-(1-(cyclopropylmethyl)-7-((1-(2,2-difluoroethyl)-1H-pyrazol-4-yl)amino)-1H-indol-2-yl)-7-methoxy-1-methyl-1H-benzo[d]imidazol-5-yl)methanone] | 66 nM |
| COc1cc(C(=O)N2C[C@H]3CC[C@@H]2[C@@H]3N)cc2nc(-c3cc4cccc(Nc5c(C)nn(C)c5C)c4n3CC3CC3(Cl)Cl)n(C)c12 (stereo partly drawn) [Example 176, ((1R,4R,7R)-7-amino-2-azabicyclo[2.2.1]heptan-2-yl)(2-(1-((2,2-dichlorocyclopropyl)meth-yl)-7-((1,3,5-trimethyl-1H-pyrazol-4-yl)amino)-1H-indol-2-yl)-7-methoxy-1-methyl-1H-benzo[d]imidazol-5-yl)methanone] | 76 nM |
| COc1cc(C(=O)N2C[C@H]3CC[C@@H]2[C@@H]3N)cc2nc(-c3cc4cccc(Nc5cn(C)nc5C)c4n3CC3CC3C)n(C)c12 (stereo partly drawn) [Example 177, ((1R,4R,7R)-7-amino-2-azabicyclo[2.2.1]heptan-2-yl)(2-(7-((1,3-dimethyl-1H-pyrazol-4-yl)amino)-1-((2-methylcyclopropyl)meth-yl)-1H-indol-2-yl)-7-methoxy-1-methyl-1H-benzo[d]imidazol-5-yl)methanone] | 40 nM |
| COc1cc(C(=O)N2C[C@H]3CC[C@@H]2[C@@H]3N)cc2nc(-c3cc4cccc(Nc5cn(C)nc5C)c4n3CC3CC3(F)F)n(C)c12 (stereo partly drawn) [Example 178, ((1R,4R,7R)-7-amino-2-azabicyclo[2.2.1]heptan-2-yl)(2-(1-((2,2-difluorocyclopropyl)meth-yl)-7-((1,3-dimethyl-1H-pyrazol-4-yl)amino)-1H-indol-2-yl)-7-methoxy-1-methyl-1H-benzo[d]imidazol-5-yl)methanone] | 56 nM |
| COc1cc(C(=O)N2C[C@H]3CC[C@@H]2[C@@H]3N)cc2nc(-c3cc4cccc(Nc5cn(C)nc5C)c4n3CC3CC3(Cl)Cl)n(C)c12 (stereo partly drawn) [Example 179, ((1R,4R,7R)-7-amino-2-azabicyclo[2.2.1]heptan-2-yl)(2-(1-((2,2-dichlorocyclopropyl)meth-yl)-7-((1,3-dimethyl-1H-pyrazol-4-yl)amino)-1H-indol-2-yl)-7-methoxy-1-methyl-1H-benzo[d]imidazol-5-yl)methanone] | 24 nM |
| COc1cc(C(=O)N2C[C@H]3CC[C@@H]2[C@@H]3N)cc2nc(-c3cc4cccc(Nc5c(C)nn(C)c5C)c4n3CC3CC3C)n(C)c12 (stereo partly drawn) [Example 180, ((1R,4R,7R)-7-amino-2-azabicyclo[2.2.1]heptan-2-yl)(7-methoxy-1-methyl-2-(1-((2-methylcyclopropyl)meth-yl)-7-((1,3,5-trimethyl-1H-pyrazol-4-yl)amino)-1H-indol-2-yl)-1H-benzo[d]imidazol-5-yl)methanone] | 27 nM |
| COc1cc(C(=O)N2C[C@H]3CC[C@@H]2[C@@H]3N)cc2nc(-c3cc4cccc(-c5ccc6c(c5)C(F)(F)C(=O)N6)c4n3CC3CC3)n(C)c12 [Example 190, 5-(2-(5-((1R,4R,7R)-7-amino-2-azabicyclo[2.2.1]heptane-2-carbonyl)-7-methoxy-1-methyl-1H-benzo[d]imidazol-2-yl)-1-(cyclopropylmethyl)-1H-indol-7-yl)-3,3-difluoroindolin-2-one] | 85 nM |
| COc1cc(C(=O)N2C[C@H]3CC[C@@H]2[C@@H]3N)cc2nc(-c3cc4cccc(-c5ccc(C(N)=O)cc5F)c4n3CC3CC3)n(C)c12 [Example 191, 4-(2-(5-((1R,4R,7R)-7-amino-2-azabicyclo[2.2.1]heptane-2-carbonyl)-7-methoxy-1-methyl-1H-benzo[d]imidazol-2-yl)-1-(cyclopropylmethyl)-1H-indol-7-yl)-3-fluorobenzamide] | 81 nM |

Same assay, conditions: human PAD4, rapid-fire mass spectrum (RFMS) assay; 5 nM hPAD4, 250 μM BAEE; read-out: hPAD4 RFMS IC50

| SMILES | IC50 |
| --- | --- |
| COc1cc(C(=O)N2C[C@H]3CC[C@@H]2[C@@H]3N)cc2nc(-c3cc4cccc(-c5ccccc5CO)c4n3CC3CC3)n(C)c12 [Example 181, ((1R,4R,7R)-7-amino-2-azabicyclo[2.2.1]heptan-2-yl)(2-(1-(cyclopropylmethyl)-7-(2-(hydroxymethyl)phenyl)-1H-indol-2-yl)-7-methoxy-1-methyl-1H-benzo[d]imidazol-5-yl)methanone] | 127 nM |
| COc1cc(C(=O)N2C[C@H]3CC[C@@H]2[C@@H]3N)cc2nc(-c3cc4cccc(C#N)c4n3CC3CC3)n(C)c12 [Example 183, 2-(5-((1R,4R,7R)-7-amino-2-azabicyclo[2.2.1]heptane-2-carbonyl)-7-methoxy-1-methyl-1H-benzo[d]imidazol-2-yl)-1-(cyclopropylmethyl)-1H-indole-7-carbonitrile] | 128 nM |
| COc1cc(C(=O)N2C[C@H]3CC[C@@H]2[C@@H]3N)cc2nc(-c3cc4cccc(C(N)=O)c4n3CC3CC3)n(C)c12 [Example 184, 2-(5-((1R,4R,7R)-7-Amino-2-azabicyclo[2.2.1]heptane-2-carbonyl)-7-methoxy-1-methyl-1H-benzo[d]imidazol-2-yl)-1-(cyclopropylmethyl)-1H-indole-7-carboxamide] | 74 nM |
| COc1cc(C(=O)N2C[C@H](N)C[C@@H](F)C2)cc2nc(-c3cc4cccc(OC)c4n3CC3CC3)n(C)c12 [Example 185, ((3R,5R)-3-amino-5-fluoropiperidin-1-yl)(2-(1-(cyclopropylmethyl)-7-methoxy-1H-indol-2-yl)-7-methoxy-1-methyl-1H-benzo[d]imidazol-5-yl)methanone] | 133 nM |
| COc1cc(C(=O)N2C[C@H]3CC[C@@H]2[C@@H]3N)cc2nc(-c3cc4cccc(C5CCN(C(=O)Nc6ccccc6)CC5)c4n3CC3CC3)n(C)c12 [Example 187, 4-(2-(5-((1R,4R,7R)-7-amino-2-azabicyclo[2.2.1]heptane-2-carbonyl)-7-methoxy-1-methyl-1H-benzo[d]imidazol-2-yl)-1-(cyclopropylmethyl)-1H-indol-7-yl)-N-phenylpiperidine-1-carboxamide] | 18 nM |
| COc1cc(C(=O)N2C[C@H]3CC[C@@H]2[C@@H]3N)cc2nc(-c3cc4cccc(C5CCN(C(=O)N(C)C)CC5)c4n3CC3CC3)n(C)c12 [Example 188, 4-(2-(5-((1R,4R,7R)-7-amino-2-azabicyclo[2.2.1]heptane-2-carbonyl)-7-methoxy-1-methyl-1H-benzo[d]imidazol-2-yl)-1-(cyclopropylmethyl)-1H-indol-7-yl)-N,N-dimethylpiperidine-1-carboxamide] | 27 nM |
| COc1cc(C(=O)N2C[C@H](N)C[C@@H](F)C2)cc2nc(-c3cc4cccc(C5CCN(C(C)=O)CC5)c4n3CC3CC3)n(Cc3cnn(C)c3)c12 [Example 189, 1-(4-(2-(5-((3R,5R)-3-amino-5-fluoropiperidine-1-carbonyl)-7-methoxy-1-((1-methyl-1H-pyrazol-4-yl)methyl)-1H-benzo[d]imidazol-2-yl)-1-(cyclopropylmethyl)-1H-indol-7-yl)piperidin-1-yl)ethan-1-one] | 18 nM |
